Data published in US6608082B1, “Treatment of erectile dysfunction using isoquinoline compound melanocortin receptor ligands” (Lion Bioscience AG, priority 1998, dated 2003).

Molecular target: T1, MCR-1 (Homo sapiens, UniProt Q01726)
T1 construct: expressed in transfected cells; host or cells: HEK 293
Test: Melanocortin receptor binding assay, competition with 125I-HP 467, HEK 293 cells expressing hMCR-1
Conditions: 10 μM isoquinoline compound; for % Disp. of 125I-HP 467 (first of duplicate): HEK 293 cells expressing MCR-1, duplicate 1; for % Disp. of 125I-HP 467 (second of duplicate): HEK 293 cells expressing MCR-1, duplicate 2
In short: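 Test compounds compete on intact HEK 293 cells carrying hMCR-1 (2×10^4 per tube) or hMCR-4 (4×10^3 per tube), suspended in PBS, 10% calf serum, 1 mM CaCl2.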

T1 sequence (Q01726 whole entry): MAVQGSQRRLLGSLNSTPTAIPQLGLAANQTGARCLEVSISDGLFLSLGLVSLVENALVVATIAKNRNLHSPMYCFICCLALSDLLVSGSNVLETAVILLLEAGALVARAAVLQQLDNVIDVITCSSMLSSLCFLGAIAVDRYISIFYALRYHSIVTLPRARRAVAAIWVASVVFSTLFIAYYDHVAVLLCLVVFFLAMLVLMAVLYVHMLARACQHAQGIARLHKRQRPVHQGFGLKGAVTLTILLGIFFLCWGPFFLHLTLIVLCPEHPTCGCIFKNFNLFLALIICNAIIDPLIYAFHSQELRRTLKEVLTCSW

SMILES	% Disp. of 125I-HP 467 (first of duplicate) [%]	% Disp. of 125I-HP 467 (second of duplicate) [%]
CCn1c2ccccc2c2cc(C3C(CNC4CCCCC4)c4ccccc4CN3CC(CN)NC)ccc21 (stereo not shown) [TRG 2405-173]	67	59.3
CNC(CN)CN1Cc2ccccc2C(CNC2CCCCC2)C1c1ccc[nH]1 (stereo not shown) [TRG 2405-175]	68.5	68.8
CNC(CN)CN1Cc2ccccc2C(CNC2CCCCC2)C1c1ccc(S(C)(=O)=O)cc1 (stereo not shown) [TRG 2405-177]	39	30.7
CNC(CN)CN1Cc2ccccc2C(CNC2CCCCC2)C1c1ccc(OC)c(S(=O)(=O)O)c1 (stereo not shown) [TRG 2405-178]	25	22.1
CNC(CN)CN1Cc2ccccc2C(CNC2CCCCC2)C1c1ccc(Br)o1 (stereo not shown) [TRG 2405-179]	61.1	56.8
CNC(CN)CN1Cc2ccccc2C(CNC2CCCCC2)C1c1nccs1 (stereo not shown) [TRG 2405-180]	72	64.6
CNC(CN)CCCCN1Cc2ccccc2C(CNC2CCCCC2)C1c1ccccc1 (stereo not shown) [TRG 2405-181]	57.3	64.4
CNC(CN)CCCCN1Cc2ccccc2C(CNC2CCCCC2)C1c1cccn1C (stereo not shown) [TRG 2405-184]	55.8	46
CN[C@H](CN)CCCCN1Cc2ccccc2C(CNC2CCCCC2)C1c1cccc2ccccc12 (stereo partly shown) [TRG 2405-185]	68.1	60.4
CNC(CN)CCCCN1Cc2ccccc2C(CNC2CCCCC2)C1c1ccc(F)c(F)c1F (stereo not shown) [TRG 2405-186]	62.7	52.7
CNC(CN)CCCCN1Cc2ccccc2C(CNC2CCCCC2)C1c1cccc2c1OCO2 (stereo not shown) [TRG 2405-188]	66.9	60.1
CNC(CN)CCCCN1Cc2ccccc2C(CNC2CCCCC2)C1c1cccc(F)c1F (stereo not shown) [TRG 2405-189]	45	54.8
CNC(CN)CCCCN1Cc2ccccc2C(CNC2CCCCC2)C1c1c(F)cccc1F (stereo not shown) [TRG 2405-191]	41.2	47.3
CNC(CN)CCCCN1Cc2ccccc2C(CNC2CCCCC2)C1c1ccccc1Br (stereo not shown) [TRG 2405-192]	73.8	50.9
CNC(CN)CCCCN1Cc2ccccc2C(CNC2CCCCC2)C1c1c(F)cccc1Cl (stereo not shown) [TRG 2405-194]	50.7	51.4
CNC(CN)CCCCN1Cc2ccccc2C(CNC2CCCCC2)C1c1ccccc1CN (stereo not shown) [TRG 2405-195]	44.7	35.7
CNC(CN)CCCCN1Cc2ccccc2C(CNC2CCCCC2)C1c1ccccc1F (stereo not shown) [TRG 2405-196]	69.1	64.6
CNC(CN)CCCCN1Cc2ccccc2C(CNC2CCCCC2)C1c1ccco1 (stereo not shown) [TRG 2405-197]	41.9	41.3
CNC(CN)CCCCN1Cc2ccccc2C(CNC2CCCCC2)C1c1ncc[nH]1 (stereo not shown) [TRG 2405-198]	65.4	26.4
CNC(CN)CCCCN1Cc2ccccc2C(CNC2CCCCC2)C1c1ccccc1OC (stereo not shown) [TRG 2405-199]	71.5	71.4
CNC(CN)CCCCN1Cc2ccccc2C(CNC2CCCCC2)C1c1ccc2ccccc2c1 (stereo not shown) [TRG 2405-200]	83.6	81
CNC(CN)CCCCN1Cc2ccccc2C(CNC2CCCCC2)C1c1ccccn1 (stereo not shown) [TRG 2405-201]	61.1	43.4
CNC(CN)CCCCN1Cc2ccccc2C(CNC2CCCCC2)C1c1ccc2ccccc2n1 (stereo not shown) [TRG 2405-202]	63	53.2
CNC(CN)CCCCN1Cc2ccccc2C(CNC2CCCCC2)C1c1cccs1 (stereo not shown) [TRG 2405-203]	58.1	49
CNC(CN)CCCCN1Cc2ccccc2C(CNC2CCCCC2)C1c1ccc(Cl)c(Cl)c1 (stereo not shown) [TRG 2405-206]	75	69
CNC(CN)CCCCN1Cc2ccccc2C(CNC2CCCCC2)C1c1cc(C(F)(F)F)cc(C(F)(F)F)c1 (stereo not shown) [TRG 2405-208]	79.5	67.5
CNC(CN)CCCCN1Cc2ccccc2C(CNC2CCCCC2)C1c1cc(Cl)cc(Cl)c1 (stereo not shown) [TRG 2405-210]	76.5	69.6

SMILES	% Disp. of 125I-HP 467 (first of duplicate) [%]	% Disp. of 125I-HP 467 (second of duplicate) [%]
CNC(CN)CCCCN1Cc2ccccc2C(CNC2CCCCC2)C1c1cc(OC)cc(OC)c1 (stereo not shown) [TRG 2405-211]	69.9	69
CNC(CN)CCCCN1Cc2ccccc2C(CNC2CCCCC2)C1c1cc(C)c(O)c(C)c1 (stereo not shown) [TRG 2405-212]	54.8	45.8
CNC(CN)CCCCN1Cc2ccccc2C(CNC2CCCCC2)C1c1cccc(Oc2ccc(OC)cc2)c1 (stereo not shown) [TRG 2405-214]	87.5	84.9
CNC(CN)CCCCN1Cc2ccccc2C(CNC2CCCCC2)C1c1cccc(C(F)(F)F)c1 (stereo not shown) [TRG 2405-215]	75.9	70.8
CNC(CN)CCCCN1Cc2ccccc2C(CNC2CCCCC2)C1c1ccc(F)c(Br)c1 (stereo not shown) [TRG 2405-216]	78.9	67.9
CNC(CN)CCCCN1Cc2ccccc2C(CNC2CCCCC2)C1c1cccc(Br)c1 (stereo not shown) [TRG 2405-217]	74.5	68.8
CNC(CN)CCCCN1Cc2ccccc2C(CNC2CCCCC2)C1c1cccc(CN)c1 (stereo not shown) [TRG 2405-219]	43.5	42.9
CNC(CN)CCCCN1Cc2ccccc2C(CNC2CCCCC2)C1c1ccc(OC)c(F)c1 (stereo not shown) [TRG 2405-220]	67.3	60.6
CNC(CN)CCCCN1Cc2ccccc2C(CNC2CCCCC2)C1c1cccc(F)c1 (stereo not shown) [TRG 2405-221]	65.2	62.7
CNC(CN)CCCCN1Cc2ccccc2C(CNC2CCCCC2)C1c1ccoc1 (stereo not shown) [TRG 2405-222]	34.3	39.3
CNC(CN)CCCCN1Cc2ccccc2C(CNC2CCCCC2)C1c1cccc(O)c1 (stereo not shown) [TRG 2405-223]	33.6	21.2
CNC(CN)CCCCN1Cc2ccccc2C(CNC2CCCCC2)C1c1cccc(OC)c1 (stereo not shown) [TRG 2405-225]	69.8	69.4
CNC(CN)CCCCN1Cc2ccccc2C(CNC2CCCCC2)C1c1cccc(C)c1 (stereo not shown) [TRG 2405-227]	78.2	74.6
CNC(CN)CCCCN1Cc2ccccc2C(CNC2CCCCC2)C1c1cccc([N+](=O)[O-])c1 (stereo not shown) [TRG 2405-229]	58.6	48.8
CNC(CN)CCCCN1Cc2ccccc2C(CNC2CCCCC2)C1c1cccc(Oc2ccccc2)c1 (stereo not shown) [TRG 2405-230]	89.2	84.2
CNC(CN)CCCCN1Cc2ccccc2C(CNC2CCCCC2)C1c1cccnc1 (stereo not shown) [TRG 2405-231]	25	18.9
CNC(CN)CCCCN1Cc2ccccc2C(CNC2CCCCC2)C1c1cnc2ccccc2c1 (stereo not shown) [TRG 2405-232]	36.1	34.2
CNC(CN)CCCCN1Cc2ccccc2C(CNC2CCCCC2)C1c1ccc(OCCCN(C)C)cc1 (stereo not shown) [TRG 2405-234]	52.9	37.7
CNC(CN)CCCCN1Cc2ccccc2C(CNC2CCCCC2)C1c1ccc(SC)cc1 (stereo not shown) [TRG 2405-237]	62.2	47.8
CNC(CN)CCCCN1Cc2ccccc2C(CNC2CCCCC2)C1c1ccc(OC)cc1 (stereo not shown) [TRG 2405-240]	69.6	66.5
CNC(CN)CCCCN1Cc2ccccc2C(CNC2CCCCC2)C1c1ccc(CN)cc1 (stereo not shown) [TRG 2405-244]	29.7	22.5
CNC(CN)CCCCN1Cc2ccccc2C(CNC2CCCCC2)C1c1ccc(F)cc1 (stereo not shown) [TRG 2405-245]	56.6	56.8
CNC(CN)CCCCN1Cc2ccccc2C(CNC2CCCCC2)C1c1ccc(C(C)C)cc1 (stereo not shown) [TRG 2405-247]	83	85.3
CNC(CN)CCCCN1Cc2ccccc2C(CNC2CCCCC2)C1c1ccc(C)cc1 (stereo not shown) [TRG 2405-249]	82.3	83
CNC(CN)CCCCN1Cc2ccccc2C(CNC2CCCCC2)C1c1ccc([N+](=O)[O-])cc1 (stereo not shown) [TRG 2405-251]	49.4	46.9
CNC(CN)CCCCN1Cc2ccccc2C(CNC2CCCCC2)C1c1ccncc1 (stereo not shown) [TRG 2405-254]	24.9	29.1
